# Source: US11352340B2, “Pyridine and pyridimine compounds as PI3K-gamma inhibitors” (Incyte Corporation, priority 2016, dated 2022)
# Counter-ions that a name gives are not always drawn.
# Columns and labels:
# [1] = molecular target: PI3Kγ (p110γ) Recombinant Human Protein (Homo sapiens (Human), UniProt P48736); experiment: PI3K-γ Scintillation Proximity Assay; type: biochemical; details: read-out: PI3K-gamma SPA IC50
# Procedure, shortened: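 Radiometric SPA: reaction at room temperature for 120 min using 2 μM ATP with [γ-33P]ATP tracer, 20 μM PIP2 substrate and 13 nM human PI3Kγ (MOPS pH 6.7, MgCl2, DTT, CHAPS; 2% DMSO). EDTA quench with WGA beads, scintillation count, and IC50 fit of percent-of-control activity.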
# [2] = molecular target: PI3Kδ (p110δ/p85α) Recombinant Human Protein (Homo sapiens (Human), UniProt O00329); experiment: PI3Kδ Scintillation Proximity Assay; type: biochemical; details: read-out: PI3K-delta SPA IC50
# Chain of PI3Kδ (p110δ/p85α) Recombinant Human Protein (O00329 whole entry): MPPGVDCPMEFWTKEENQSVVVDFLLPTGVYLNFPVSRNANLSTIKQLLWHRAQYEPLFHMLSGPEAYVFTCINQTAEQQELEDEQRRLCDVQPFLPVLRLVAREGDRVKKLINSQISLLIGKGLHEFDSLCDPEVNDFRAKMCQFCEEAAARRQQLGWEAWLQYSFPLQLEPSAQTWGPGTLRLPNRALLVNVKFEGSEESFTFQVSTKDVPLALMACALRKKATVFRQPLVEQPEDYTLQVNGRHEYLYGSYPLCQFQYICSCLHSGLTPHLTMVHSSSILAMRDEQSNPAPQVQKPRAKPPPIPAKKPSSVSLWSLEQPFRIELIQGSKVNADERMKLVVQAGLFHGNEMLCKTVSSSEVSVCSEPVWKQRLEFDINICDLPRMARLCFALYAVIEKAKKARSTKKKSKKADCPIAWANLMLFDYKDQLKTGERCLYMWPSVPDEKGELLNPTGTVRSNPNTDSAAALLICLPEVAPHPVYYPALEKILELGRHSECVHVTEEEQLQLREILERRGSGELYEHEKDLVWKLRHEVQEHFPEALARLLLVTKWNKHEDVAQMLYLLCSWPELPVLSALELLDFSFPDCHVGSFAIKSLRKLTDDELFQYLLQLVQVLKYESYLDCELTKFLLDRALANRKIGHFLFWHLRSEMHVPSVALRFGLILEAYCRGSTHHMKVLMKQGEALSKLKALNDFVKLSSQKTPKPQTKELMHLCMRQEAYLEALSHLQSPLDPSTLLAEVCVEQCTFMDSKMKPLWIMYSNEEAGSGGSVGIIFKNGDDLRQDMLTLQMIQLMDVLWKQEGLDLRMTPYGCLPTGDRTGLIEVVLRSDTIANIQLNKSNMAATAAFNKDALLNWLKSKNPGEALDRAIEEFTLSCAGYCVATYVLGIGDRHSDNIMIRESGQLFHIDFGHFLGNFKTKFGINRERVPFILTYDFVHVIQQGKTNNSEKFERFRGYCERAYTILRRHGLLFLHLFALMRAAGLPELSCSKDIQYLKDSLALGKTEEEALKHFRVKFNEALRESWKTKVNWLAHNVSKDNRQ
# Chain of PI3Kδ (p110δ/p85α) Recombinant Human Protein (P27986 whole entry partner): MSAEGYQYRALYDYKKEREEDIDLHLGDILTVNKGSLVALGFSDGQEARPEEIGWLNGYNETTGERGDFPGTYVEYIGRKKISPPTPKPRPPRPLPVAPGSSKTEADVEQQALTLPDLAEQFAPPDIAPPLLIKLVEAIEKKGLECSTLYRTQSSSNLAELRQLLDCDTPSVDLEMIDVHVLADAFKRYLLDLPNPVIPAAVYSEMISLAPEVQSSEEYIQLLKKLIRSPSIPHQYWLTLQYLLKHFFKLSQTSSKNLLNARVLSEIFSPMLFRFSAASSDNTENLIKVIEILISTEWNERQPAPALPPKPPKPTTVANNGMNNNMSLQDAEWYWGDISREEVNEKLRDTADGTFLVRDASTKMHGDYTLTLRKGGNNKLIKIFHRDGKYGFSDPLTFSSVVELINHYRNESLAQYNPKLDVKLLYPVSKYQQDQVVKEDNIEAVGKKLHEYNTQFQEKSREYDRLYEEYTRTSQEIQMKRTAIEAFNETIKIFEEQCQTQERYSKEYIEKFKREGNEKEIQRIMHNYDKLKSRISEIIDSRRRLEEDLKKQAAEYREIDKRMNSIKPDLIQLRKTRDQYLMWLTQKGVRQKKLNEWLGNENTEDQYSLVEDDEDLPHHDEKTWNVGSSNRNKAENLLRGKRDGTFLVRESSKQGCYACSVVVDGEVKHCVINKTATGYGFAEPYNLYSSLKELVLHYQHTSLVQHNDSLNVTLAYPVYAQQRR
# Procedure, shortened: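 Radiometric read-out: 33P-labelled PIP3 product captured on WGA SPA beads and counted, with IC50 fitted from percent activity relative to DMSO control. Enzyme (3.4 nM) was incubated 120 min at room temperature with 20 μM PIP2 and 2 μM ATP at pH 6.7, 2% DMSO.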
# Chain of PI3Kγ (p110γ) Recombinant Human Protein (P48736 whole entry): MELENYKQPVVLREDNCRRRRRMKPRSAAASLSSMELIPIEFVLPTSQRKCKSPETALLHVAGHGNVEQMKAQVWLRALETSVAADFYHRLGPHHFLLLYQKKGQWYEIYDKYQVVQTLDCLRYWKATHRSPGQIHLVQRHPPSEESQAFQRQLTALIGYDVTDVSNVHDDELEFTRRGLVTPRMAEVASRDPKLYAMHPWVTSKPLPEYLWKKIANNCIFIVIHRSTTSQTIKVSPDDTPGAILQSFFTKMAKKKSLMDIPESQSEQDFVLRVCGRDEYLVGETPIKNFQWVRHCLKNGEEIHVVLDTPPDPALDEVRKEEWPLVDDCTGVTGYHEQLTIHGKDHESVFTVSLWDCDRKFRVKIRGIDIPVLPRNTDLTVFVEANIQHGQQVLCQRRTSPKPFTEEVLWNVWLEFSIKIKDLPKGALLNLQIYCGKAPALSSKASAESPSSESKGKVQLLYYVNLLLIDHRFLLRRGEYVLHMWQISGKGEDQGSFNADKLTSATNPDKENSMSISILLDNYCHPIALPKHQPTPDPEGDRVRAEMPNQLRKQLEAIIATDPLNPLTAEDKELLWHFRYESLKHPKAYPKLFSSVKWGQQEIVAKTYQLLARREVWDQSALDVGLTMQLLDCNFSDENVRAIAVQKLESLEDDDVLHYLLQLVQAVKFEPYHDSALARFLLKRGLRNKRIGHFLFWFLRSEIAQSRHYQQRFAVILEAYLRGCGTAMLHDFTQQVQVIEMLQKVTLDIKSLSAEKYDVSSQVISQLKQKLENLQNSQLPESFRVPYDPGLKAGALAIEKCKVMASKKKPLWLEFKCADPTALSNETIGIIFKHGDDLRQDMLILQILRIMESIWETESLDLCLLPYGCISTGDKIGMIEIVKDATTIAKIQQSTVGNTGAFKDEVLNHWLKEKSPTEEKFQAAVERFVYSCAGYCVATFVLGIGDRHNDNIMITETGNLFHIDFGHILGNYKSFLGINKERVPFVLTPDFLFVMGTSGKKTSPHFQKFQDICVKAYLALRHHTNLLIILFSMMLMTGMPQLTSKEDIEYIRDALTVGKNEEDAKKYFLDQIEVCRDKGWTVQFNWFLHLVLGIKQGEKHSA
SMILES,IC50 [1] [nM],IC50 [2] [nM]
"Cc1[nH]c(-c2cc(-c3cncc(N4CCOCC4)c3)ccn2)nc1C(C)O (racemic) [Example 124, 1-[5-Methyl-2-(5-morpholin-4-yl-3,4′-bipyridin-2′-yl)-1H-imidazol-4-yl]ethanol]",≤ 500,≤ 500
"Cc1nc(-c2cc(-c3cncc(N)c3)ccn2)[nH]c1C [Example 129, 2′-(4,5-Dimethyl-1H-imidazol-2-yl)-3,4′-bipyridin-5-amine]",≤ 100,≤ 500
"Cc1nc(-c2cc(C3=CCN(CC4CCOCC4)C3)ccn2)[nH]c1C [Example 230, 2-(4,5-Dimethyl-1H-imidazol-2-yl)-4-(1-((tetrahydro-2H-pyran-4-yl)methyl)-2,5-dihydro-1H-pyrrol-3-yl)pyridine trifluoroacetate salt]",> 500,> 500
"CCOC(=O)c1nc(-c2cc(-c3cncc(OC)c3)ccn2)[nH]c1C(F)(F)F [Example 80, Ethyl 2-(5-methoxy-3,4′-bipyridin-2′-yl)-5-(trifluoromethyl)-1H-imidazole-4-carboxylate]",> 500,> 500
"CC(=O)N1CCC(c2c[nH]c(-c3cc(-c4cnn(Cc5ccc(Cl)cc5)c4)ccn3)n2)C1 (stereo not drawn) [Example 303, 2-[4-(1-Acetylpyrrolidin-3-yl)-1H-imidazol-2-yl]-4-[l-(4-chlorobenzyl)-1H-pyrazol-4-yl]pyridine trifluoroacetate salt]",≤ 500,> 500
"CC(=O)N1CCC(c2c[nH]c(-c3cc(-c4cnn(Cc5ccc(Cl)cc5)c4)ccn3)n2)C1 (centres unmarked) [Example 301, 2-[4-(1-Acetylpyrrolidin-3-yl)-1H-imidazol-2-yl]-4-[1-(4-chlorobenzyl)-1H-pyrazol-4-yl]pyridine trifluoroacetate salt]",≤ 500,> 500
"Cc1[nH]c(-c2cc(-c3cncc(N4CCOCC4)c3)ccn2)nc1Nc1ccnnc1 [Example 308, N-[5-Methyl-2-(5-morpholin-4-yl-3,4′-bipyridin-2′-yl)-1H-imidazol-4-yl]pyridazin-4-amine trifluoroacetate salt]",≤ 500,≤ 50
"Cc1nc(-c2cc(-c3cncc(C(=O)N[C@@H]4CCOC4)c3)ccn2)[nH]c1C [Example 176, 2′-(4,5-Dimethyl-1H-imidazol-2-yl)-N-[(3R)-tetrahydrofuran-3-yl]-3,4′-bipyridine-5-carboxamide trifluoroacetate salt]",≤ 100,≤ 500
"Cc1nc(-c2cc(-c3cncc(NCC4CCOCC4)c3)ccn2)[nH]c1C [Example 145, 2′-(4,5-Dimethyl-1H-imidazol-2-yl)-N-(tetrahydro-2H-pyran-4-ylmethyl)-3,4′-bipyridin-5-amine]",≤ 50,≤ 500
"COC1CN(C(=O)c2nc(-c3cc(-c4cncc(N5CCOCC5)c4)ccn3)[nH]c2C)C1 [Example 263, 2′-{4-[(3-Methoxyazetidin-1-yl)carbonyl]-5-methyl-1H-imidazol-2-yl}-5-morpholin-4-yl-3,4′-bipyridine]",≤ 100,≤ 50
"Cc1[nH]c(-c2cc(-c3cncc(N4CCOCC4)c3)ccn2)nc1CNC1CCCC1 [Example 284, N-{[5-Methyl-2-(5-morpholin-4-yl-3,4′-bipyridin-2′-yl)-1H-imidazol-4-yl]methyl}cyclopentanamine]",> 500,≤ 100
"Cc1nc(-c2cc(-c3cncc(C(=O)NCCC4CCOCC4)c3)ccn2)[nH]c1C [Example 164, 2′-(4,5-Dimethyl-1H-imidazol-2-yl)-N-(2-(tetrahydro-2H-pyran-4-yl)ethyl)-3,4′-bipyridine-5-carboxamide trifluoroacetate salt]",≤ 500,≤ 50
"CC(=O)N1CC=C(c2ccnc(-c3nc(C)c(C)[nH]3)c2)C1 [Example 226, 1-(3-(2-(4,5-Dimethyl-1H-imidazol-2-yl)pyridin-4-yl)-2,5-dihydro-1H-pyrrol-1-yl)ethanone trifluoroacetate salt]",> 500,> 500
"Cc1[nH]c(-c2cc(-c3cncc(N4CCOCC4)c3)ccn2)nc1CN1CCOCC1 [Example 292, 2′-[5-Methyl-4-(morpholin-4-ylmethyl)-1H-imidazol-2-yl]-5-morpholin-4-yl-3,4′-bipyridine]",≤ 500,≤ 100
"Cc1nc(-c2cc(-c3cncc(C(=O)N4CCOCC4)c3)ccn2)[nH]c1C [Example 148, (2′-(4,5-Dimethyl-1H-imidazol-2-yl)-3,4′-bipyridin-5-yl)(morpholino)methanone]",≤ 100,≤ 500
"Cc1[nH]c(-c2cc(-c3cncc(S(C)(=O)=O)c3)ccn2)nc1C(=O)N1CC[C@H](O)C1 [Example 246, (3S)-1-({5-Methyl-2-[5-(methylsulfonyl)-3,4′-bipyridin-2′-yl]-1H-imidazol-4-yl}carbonyl)pyrrolidin-3-ol]",≤ 500,≤ 500
"O=S(=O)(c1ccccc1)N1CCC(c2c[nH]c(-c3cc(-c4cnn(Cc5ccc(Cl)cc5)c4)ccn3)n2)C1 (centres unmarked) [Example 302, 4-[1-(4-Chlorobenzyl)-1H-pyrazol-4-yl]-2-{4-[1-(phenylsulfonyl)pyrrolichn-3-yl]-1H-imidazol-2-yl}pyridine trifluoroacetate salt]",≤ 500,≤ 500

# Next, values leading:
IC50 [1] [nM],IC50 [2] [nM],SMILES
> 500,> 500,"O=C(Cn1cc(-c2ccnc(-c3ncc(-c4ccccc4)[nH]3)c2)cn1)N1CCOCC1 [Example 51, 1-Morpholino-2-(4-(2-(5-phenyl-1H-imidazol-2-yl)pyridin-4-yl)-1H-pyrazol-1-yl)ethanone trifluoroacetate salt]"
> 500,> 500,"Cc1n[nH]c(C)c1-c1ccnc(-c2ncc(-c3ccccc3)[nH]2)c1 [Example 11, 4-(3,5-Dimethyl-1H-pyrazol-4-yl)-2-(5-phenyl-1H-imidazol-2-yl)pyridine trifluoroacetate salt]"
≤ 500,≤ 100,"O=C(O)CCn1cc(-c2ccnc(-c3ncc(-c4ccccc4)[nH]3)c2)cn1 [Example 57, 3-(4-(2-(5-Phenyl-1H-imidazol-2-yl)pyridin-4-yl)-1H-pyrazol-1-yl)propanoic acid trifluoroacetate salt]"
≤ 100,≤ 100,"Cc1nc(-c2cc(-c3cncc(C(=O)N(C)CCCO)c3)ccn2)[nH]c1C [Example 209, 2′-(4,5-Dimethyl-1H-imidazol-2-yl)-N-(3-hydroxypropyl)-N-methyl-3,4′-bipyridine-5-carboxamide]"
> 500,≤ 500,"CS(=O)(=O)n1cc(-c2ccnc(-c3ncc(-c4ccccc4)[nH]3)c2)cn1 [Example 44, 4-(1-(Methylsulfonyl)-1H-pyrazol-4-yl)-2-(5-phenyl-1H-imidazol-2-yl)pyridine trifluoroacetate salt]"
> 500,> 500,"c1ccc(-c2cnc(-c3cc(-c4cnn(C5CCNCC5)c4)ccn3)[nH]2)cc1 [Example 25, 2-(5-Phenyl-1H-imidazol-2-yl)-4-(1-(piperidin-4-yl)-1H-pyrazol-4-yl)pyridine trifluoroacetate salt]"
> 500,> 500,"Cc1nc(-c2cc(C3=CCCN(Cc4ccc(Cl)cc4)C3)ccn2)[nH]c1C [Example 224, 4-(1-(4-Chlorobenzyl)-1,2,5,6-tetrahydropyridin-3-yl)-2-(4,5-dimethyl-1H-imidazol-2-yl)pyridine trifluoroacetate salt]"
> 500,≤ 500,"O=C(O)c1ccccc1Cn1cc(-c2ccnc(-c3ncc(-c4ccccc4)[nH]3)c2)cn1 [Example 33, 2-((4-(2-(5-Phenyl-1H-imidazol-2-yl)pyridin-4-yl)-1H-pyrazol-1-yl)methyl)benzoic acid trifluoroacetate salt]"
≤ 500,> 500,"COC(=O)c1ccc(Cn2cc(-c3ccnc(-c4ncc(-c5ccccc5)[nH]4)c3)cn2)cc1 [Example 32, Methyl 4-((4-(2-(5-phenyl-1H-imidazol-2-yl)pyridin-4-yl)-1H-pyrazol-1-yl)methyl)benzoate trifluoroacetate salt]"
≤ 100,≤ 50,"Cc1nc(-c2cc(-c3cncc(C(=O)N4CCC(c5ccccn5)C4)c3)ccn2)[nH]c1C (racemic) [Example 170, (2′-(4,5-Dimethyl-1H-imidazol-2-yl)-3,4′-bipyridin-5-yl)(3-(pyridin-2-yl)pyrrolidin-1-yl)methanone trifluoroacetate salt]"
> 500,> 500,"NC(=O)CCn1cc(-c2ccnc(-c3ncc(-c4ccccc4)[nH]3)c2)cn1 [Example 53, 3-(4-(2-(5-Phenyl-1H-imidazol-2-yl)pyridin-4-yl)-1H-pyrazol-1-yl)propanamide]"
≤ 500,≤ 500,"CC(C)(C)OC(=O)Nc1cncc(-c2ccnc(-c3ncc(-c4ccccc4)[nH]3)c2)c1 [Example 126, tert-Butyl [2′-(5-phenyl-1H-imidazol-2-yl)-3,4′-bipyridin-5-yl]carbamate]"
≤ 500,≤ 500,"O=C(O)c1cccc(Cn2cc(-c3ccnc(-c4ncc(-c5ccccc5)[nH]4)c3)cn2)c1 [Example 34, 3-((4-(2-(5-Phenyl-1H-imidazol-2-yl)pyridin-4-yl)-1H-pyrazol-1-yl)methyl)benzoic acid trifluoroacetate salt]"
≤ 500,≤ 500,"O=C(Nc1cncc(-c2ccnc(-c3ncc(-c4ccccc4)[nH]3)c2)c1)c1ccccc1 [Example 132, N-(2′-(5-Phenyl-1H-imidazol-2-yl)-3,4′-bipyridin-5-yl)benzamide]"
